This note sets out measurements from paper PMC10672942 (2023).

For experiment [1], the system named is p(dGdC)2 (DNA, polymer) GC. In words: fluorescence titration. Particulars: Na+ (sodium cacodylate 50 mM); pH 7.0, 25 °C; Scatchard fit, fixed n = 0.3; per base.
The test system of experiment [2] is p(dAdT)2 (DNA, polymer) AT. In words: fluorescence titration. The conditions noted are these: Na+ (sodium cacodylate 50 mM); pH 7.0, 25 °C; Scatchard fit, fixed n = 0.3; per base.
The test system of experiment [3] is pApU (RNA, polymer) A/U. In words: UV melting at 260 nm. Particulars: Na+ (sodium cacodylate 50 mM); pH 7.0; r = 0.3 [peptide]/[phosphate], polynucleotide 2.0 × 10^-5 M; free Tm 48.9 °C; per base.
Experiment [4] has as its system ds-dA10-dT10 (oligoAT10) (DNA, duplex) AAAAAAAAAA/TTTTTTTTTT
The experiment in a line: HPLC after irradiation at 300 nm. Particulars: ammonium acetate 100 mM; covalent; photoalkylation via quinone methide, 15 and 60 min, pH 7.0.

The test system of experiment [5] is pApU (RNA, polymer) A/U. The experiment in a line: fluorescence titration. Particulars: Na+ (sodium cacodylate 50 mM); pH 7.0, 25 °C; Scatchard fit, fixed n = 0.3; per base.

In the case of `CN(C)Cc1cc(C[C@H](NC(=O)[C@@H](N)CCCCNC(=O)c2ccc3ccc4cccc5ccc2c3c45)C(=O)OCc2ccccc2)ccc1O`, the results for the logKa in experiment [1], in experiment [2] and in experiment [5] were 6.6, 6.8 and 6.9, respectively. In experiment [3], the ΔTm is 1.4 ± 0.2 °C. Besides, in experiment [4], the binding entry was “yes”.

Turning to `CN(C)Cc1cc(C[C@H](NC(=O)[C@@H](N)CNC(=O)c2ccc3ccc4cccc5ccc2c3c45)C(=O)OCc2ccccc2)ccc1O`, the logKa in experiment [1] is recorded as 6.7; in experiment [2], above 7; in experiment [5], 6.8. The ΔTm in experiment [3] was 1.9 ± 0.6 °C.

What is called ΔTm is the change in melting temperature against a reference sample.
